ChEMBL document CHEMBL5634090, “Design of phenothiazine-based cationic amphiphilic derivatives incorporating arginine residues: Potential membrane-active broad-spectrum antimicrobials combating pathogenic bacteria in vitro and in vivo” (Eur J Med Chem, 2023)
In brackets after ≈: the same amount, converted by molar mass. Activity calls are given as the source filed them. No cut-off for these calls is given here.

Experiments:
[1] = test system: Klebsiella pneumoniae; assay: Antibacterial activity against Klebsiella pneumoniae ATCC 10031 in presence of 1 mmol/L Mg2+ by broth microdilution method; assay type: functional
[2] = Selectivity index, ratio of CC50 for cytotoxicity against mouse NCTC clone 929 cells to MIC for antibacterial activity against Escherichia coli ATCC 25922; assay type: toxicity, cell-based; conditions: read-out: Selectivity Index
[3] = test system: Staphylococcus aureus; assay: Inhibition of biofilm formation in Staphylococcus aureus ATCC 29213 at 0.78 ug/ml by crystal violet staining assay relative to control; assay type: functional
[4] = Cytotoxicity against mouse NCTC clone 929 cells assessed as cell survival rate at 12.5 ug/ml by CCK-8 assay relative to control; assay type: toxicity, cell-based; conditions: NCTC clone 929 (L929) cells, at 12.5 µg/mL, read-out: Activity
[5] = test system: Klebsiella pneumoniae; assay: Antibacterial activity against Klebsiella pneumoniae ATCC 14581 in presence of 20 umol/L Fe3+ by broth microdilution method; assay type: functional
[6] = test system: Staphylococcus aureus; assay: Induction of resistance development in Staphylococcus aureus ATCC 29213 assessed as fold increase in MIC treated over 20 serial passages by microdilution assay; assay type: functional
[7] = test system: Staphylococcus aureus; assay: Antibiofilm activity against 24 hrs preformed biofilm in Staphylococcus aureus ATCC 29213 assessed as reduction in biofilm viability at 6.25 ug/ml relative to control; assay type: functional; conditions: dose 6.25 µg/ml
[8] = test system: Klebsiella pneumoniae; assay: Antibacterial activity against Klebsiella pneumoniae ATCC 14581 in presence of 1 mmol/L Mg2+ by broth microdilution method; assay type: functional
[9] = test system: Staphylococcus aureus; assay: Antibacterial activity against Staphylococcus aureus ATCC 29213 assessed as loss in membrane integrity at 8 times MIC incubated for 4 hrs by LIVE/DEAD BacLight bacterial viability assay; assay type: functional, organism-based; conditions: Cell membrane
[10] = test system: Escherichia coli; assay: Antibacterial activity against Escherichia coli ATCC 25922 in presence of 20 umol/L Fe3+ by broth microdilution method; assay type: functional
[11] = test system: Staphylococcus aureus; assay: Antibacterial activity against methicillin resistant Staphylococcus aureus N315 by microbroth dilution assay; assay type: functional
[12] = test system: Staphylococcus aureus; assay: Antibacterial activity against Staphylococcus aureus ATCC 29213 in presence of 1 mmol/L Mg2+ by broth microdilution method; assay type: functional
[13] = test system: Klebsiella pneumoniae; assay: Antibacterial activity against Klebsiella pneumoniae ATCC 10031 assessed as loss in membrane integrity at 8 times MIC incubated for 4 hrs by LIVE/DEAD BacLight bacterial viability assay; assay type: functional, organism-based; conditions: Cell membrane
[14] = Selectivity index, ratio of CC50 for cytotoxicity against HEK293 cells to MIC for antibacterial activity against methicillin resistant Staphylococcus aureus N315; assay type: toxicity, cell-based; conditions: human, read-out: Selectivity Index
[15] = test system: Klebsiella pneumoniae; assay: Antibiofilm activity against 24 hrs preformed biofilm in Klebsiella pneumoniae ATCC 10031 assessed as reduction in biofilm viability at […] ug/ml relative to control; assay type: functional; conditions: dose […] microg/ml; 1.56 ug/mL
[16] = Cytotoxicity against mouse NCTC clone 929 cells assessed as cell survival rate at 25 ug/ml by CCK-8 assay relative to control; assay type: toxicity, cell-based; conditions: NCTC clone 929 (L929) cells, at 25 µg/mL, read-out: Activity
[17] = test system: Escherichia coli; assay: Antibacterial activity against Escherichia coli ATCC 25922 in presence of 1 mmol/L Mg2+ by broth microdilution method; assay type: functional
[18] = Cytotoxicity against HEK293 cells assessed as cell survival rate at 3.125 ug/ml by CCK-8 assay relative to control; assay type: toxicity, cell-based; conditions: human, at 3.125 µg/mL, read-out: Activity
[19] = test system: Klebsiella pneumoniae; assay: Antibacterial activity against Klebsiella pneumoniae ATCC 10031 assessed as cell membrane disruption by SYTOX Green assay; assay type: functional, organism-based
[20] = test system: Klebsiella pneumoniae; assay: Antibacterial activity against Klebsiella pneumoniae ATCC 10031 assessed as reduction in bacterial load at 8 times MIC measured after 2 hrs by time kill assay relative to control; assay type: functional; parameters: scale not given: the % may be the effect or the level left
[21] = test system: Staphylococcus aureus; assay: Antibacterial activity against methicillin resistant Staphylococcus aureus NCTC 10442 in presence of 19 umol/L Zn2+ by broth microdilution method; assay type: functional
[22] = test system: Staphylococcus aureus; assay: Antibacterial activity against methicillin resistant Staphylococcus aureus N315 in presence of 20 umol/L Fe2+ by broth microdilution method; assay type: functional
[23] = test system: Klebsiella pneumoniae; assay: Antibiofilm activity against 24 hrs preformed biofilm in Klebsiella pneumoniae ATCC 10031 assessed as reduction in biofilm viability at 25 ug/ml relative to control; assay type: functional; conditions: dose 25 µg/ml
[24] = Selectivity index, ratio of CC50 for cytotoxicity against mouse NCTC clone 929 cells to MIC for antibacterial activity against Pseudomonas aeruginosa ATCC 9027; assay type: toxicity, cell-based; conditions: read-out: Selectivity Index
[25] = test system: Staphylococcus aureus; assay: Antibacterial activity against methicillin resistant Staphylococcus aureus NCTC 10442 in presence of 4.5 mmol/L K+ by broth microdilution method; assay type: functional
[26] = test system: Staphylococcus aureus; assay: Antibiofilm activity against 24 hrs preformed biofilm in Staphylococcus aureus ATCC 29213 assessed as reduction in biofilm viability at 3.125 ug/ml relative to control; assay type: functional; conditions: dose 3.125 µg/ml
[27] = test system: Staphylococcus aureus; assay: Antibiofilm activity against 24 hrs preformed biofilm in Staphylococcus aureus ATCC 29213 assessed as reduction in biofilm viability at 0.78 ug/ml relative to control; assay type: functional; conditions: dose 0.78 µg/ml
[28] = test system: Pseudomonas aeruginosa; assay: Antibacterial activity against Pseudomonas aeruginosa ATCC 9027 in presence of 4.50 mmol/L K+ by broth microdilution method; assay type: functional
[29] = test system: Staphylococcus aureus; assay: Antibiofilm activity against 24 hrs preformed biofilm in Staphylococcus aureus ATCC 29213 assessed as reduction in biofilm viability at […] ug/ml relative to control; assay type: functional; conditions: dose […] microg/ml; 1.56 ug/mL
[30] = Selectivity index, ratio of CC50 for cytotoxicity against HEK293 cells to MIC for antibacterial activity against Escherichia coli ATCC 25922; assay type: toxicity, cell-based; conditions: human, read-out: Selectivity Index
[31] = test system: Staphylococcus aureus; assay: Antibacterial activity against Staphylococcus aureus ATCC 29213 assessed as log reduction in bacterial load at 4 times MIC measured after 2 hrs by time kill assay; assay type: functional
[32] = Selectivity index, ratio of CC50 for cytotoxicity against HEK293 cells to MIC for antibacterial activity against methicillin resistant Staphylococcus aureus NCTC 10442; assay type: toxicity, cell-based; conditions: human, read-out: Selectivity Index
[33] = Selectivity index, ratio of CC50 for cytotoxicity against HEK293 cells to MIC for antibacterial activity against Staphylococcus aureus ATCC 29213; assay type: toxicity, cell-based; conditions: human, read-out: Selectivity Index
[34] = test system: Pseudomonas aeruginosa; assay: Antibacterial activity against Pseudomonas aeruginosa ATCC 9027 infected in cyclophosphamide immunosuppressed keratitis mouse model assessed as reduction in corneal injury at 10 mg/ml administrated tropically; assay type: functional, organism-based
[35] = Cytotoxicity against mouse NCTC clone 929 cells assessed as cell survival rate at 6.25 ug/ml by CCK-8 assay relative to control; assay type: toxicity, cell-based; conditions: NCTC clone 929 (L929) cells, at 6.25 µg/mL, read-out: Activity
[36] = Selectivity index, ratio of CC50 for cytotoxicity against HEK293 cells to MIC for antibacterial activity against Pseudomonas aeruginosa ATCC 9027; assay type: toxicity, cell-based; conditions: human, read-out: Selectivity Index
[37] = Cytotoxicity against HEK293 cells assessed as cell survival rate at 6.25 ug/ml by CCK-8 assay relative to control; assay type: toxicity, cell-based; conditions: human, at 6.25 µg/mL, read-out: Activity
[38] = test system: Pseudomonas aeruginosa; assay: Antibacterial activity against Pseudomonas aeruginosa ATCC 9027 in presence of 2.50 mmol/L Ca2+ by broth microdilution method; assay type: functional

**Q.** For CCCCCCCN1c2ccccc2Sc2ccc(OCC(=O)N[C@@H](CCCNC(=N)N)C(=O)N[C@@H](CCCNC(=N)N)C(N)=O)cc21, which MIC [1] is on record?
**A.** Its MIC is 3.12 µg/mL.

**Q.** And the selectivity ratio [2]?
**A.** The selectivity ratio was 8.

**Q.** What about the inhibition at 0.78 µg/mL [3] of the same compound?
**A.** Its inhibition at 0.78 µg/mL is 45%.

**Q.** What about the viability at 12.5 ug/ml [4] of the same compound?
**A.** Its viability at 12.5 ug/ml is 70.8%.

**Q.** And the MIC [5]?
**A.** The MIC was 6.25 µg/mL.

**Q.** And the fold change (FC) [6]?
**A.** The fold change (FC) was under 4.

**Q.** What about the Activity [7] of the same compound?
**A.** The Activity was 15.93%.

**Q.** What about the MIC [8] of the same compound?
**A.** The MIC was 3.12 µg/mL.

**Q.** What about the Activity [9] of the same compound?
**A.** Its Activity is “Active”.

**Q.** And the MIC [10]?
**A.** Its MIC is 3.12 µg/mL.

**Q.** What about the MIC [11] of the same compound?
**A.** The MIC was 1.56 µg/mL (≈ 2.28 µM).

**Q.** What about the MIC [12] of the same compound?
**A.** The MIC was 3.12 µg/mL.

**Q.** And the Activity [13]?
**A.** Its Activity is “Active”.

**Q.** What about the selectivity ratio [14] of the same compound?
**A.** The selectivity ratio was 8.

**Q.** And the Activity [15]?
**A.** The Activity was 73.4%.

**Q.** What about the viability at 25 ug/ml [16] of the same compound?
**A.** Its viability at 25 ug/ml is 70.8%.

**Q.** What about the MIC [17] of the same compound?
**A.** Its MIC is 3.12 µg/mL.

**Q.** And the viability at 3.125 ug/ml [18]?
**A.** Its viability at 3.125 ug/ml is 95.4%.

**Q.** And the Activity [19]?
**A.** Its Activity is “Dose-Dependent Effect”.

**Q.** What about the Activity [20] of the same compound?
**A.** The Activity was over 99.9%.

**Q.** What about the MIC [21] of the same compound?
**A.** Its MIC is 1.56 µg/mL.

**Q.** And the MIC [22]?
**A.** Its MIC is 1.56 µg/mL.

**Q.** What about the Activity [23] of the same compound?
**A.** The Activity was 4.13%.

**Q.** What about the selectivity ratio [24] of the same compound?
**A.** The selectivity ratio was 8.

**Q.** What about the MIC [25] of the same compound?
**A.** The MIC was 1.56 µg/mL.

**Q.** And the Activity [26]?
**A.** The Activity was 27.75%.

**Q.** And the Activity [27]?
**A.** The Activity was 91.66%.

**Q.** And the MIC [28]?
**A.** Its MIC is 6.25 µg/mL.

**Q.** And the Activity [29]?
**A.** The Activity was 62.14%.

**Q.** What about the selectivity ratio [30] of the same compound?
**A.** The selectivity ratio was 8.

**Q.** And the “log(activity)” value [31]?
**A.** The value was over 3.

**Q.** And the selectivity ratio [32]?
**A.** The selectivity ratio was 8.

**Q.** And the selectivity ratio [33]?
**A.** The selectivity ratio was 8.

**Q.** And the Activity [34]?
**A.** Its Activity is “inactive”.

**Q.** And the viability at 6.25 ug/ml [35]?
**A.** The viability at 6.25 ug/ml was 91.2%.

**Q.** And the selectivity ratio [36]?
**A.** Its selectivity ratio is 8.

**Q.** And the viability at 6.25 ug/ml [37]?
**A.** The viability at 6.25 ug/ml was 87.7%.

**Q.** What about the MIC [38] of the same compound?
**A.** The MIC was 6.25 µg/mL.
